Values quoted from earlier work, collected in US20020010202A1, “Combinations of prostaglandins and brimonidine or derivatives thereof” (Allergan Sales, Inc., priority 1994, published 2002).

Assays:
[1] = adjunctive to timolol in patients; statistically significant
[2] = pressure rise with microkeratomes in LASIK
[3] = in vivo

Structure (SMILES)	IOP-lowering effect [1]	nerve fiber thinning [2]	neuroprotection in the eye [3]	adverse effects (in vivo)	duration of IOP decrease (in vivo) [h]	mean decrease in IOP (topically active carbonic anhydrase inhibitor) [%]
Brc1c(NC2=NCCN2)ccc2nccnc12 [Brimonidine]	about 20%	lessened or totally prevented	exhibited neuroprotective effects in the eye	–	–	–
CCN[C@H]1C[C@H](C)S(=O)(=O)c2sc(S(N)(=O)=O)cc21 [MK 507]	–	–	–	blanching of the conjunctiva, minimal mydriasis and eyelid retraction	≤ 12	25
CC(C)(C)NC[C@H](O)COc1nsnc1N1CCOCC1 [timolol, (S)-1-tert-Butylamino-3-[(4-morpholino-1,2,5-thiadiazol-3-yl)oxy]-2-propanol]	–	–	did not exhibit neuroprotection	–	–	–
